Here are results for six molecules from US10024865B2, “Ubiquitination assay” (ITI Scotland Limited, priority 2010, dated 2018).

The target of assay [1] is T1, Ube1 (Homo sapiens, UniProt P22314).
T1 construct: 6His-UBE1-(hu,FL) (E1); made in house
T1 sequence (P22314 1-1058): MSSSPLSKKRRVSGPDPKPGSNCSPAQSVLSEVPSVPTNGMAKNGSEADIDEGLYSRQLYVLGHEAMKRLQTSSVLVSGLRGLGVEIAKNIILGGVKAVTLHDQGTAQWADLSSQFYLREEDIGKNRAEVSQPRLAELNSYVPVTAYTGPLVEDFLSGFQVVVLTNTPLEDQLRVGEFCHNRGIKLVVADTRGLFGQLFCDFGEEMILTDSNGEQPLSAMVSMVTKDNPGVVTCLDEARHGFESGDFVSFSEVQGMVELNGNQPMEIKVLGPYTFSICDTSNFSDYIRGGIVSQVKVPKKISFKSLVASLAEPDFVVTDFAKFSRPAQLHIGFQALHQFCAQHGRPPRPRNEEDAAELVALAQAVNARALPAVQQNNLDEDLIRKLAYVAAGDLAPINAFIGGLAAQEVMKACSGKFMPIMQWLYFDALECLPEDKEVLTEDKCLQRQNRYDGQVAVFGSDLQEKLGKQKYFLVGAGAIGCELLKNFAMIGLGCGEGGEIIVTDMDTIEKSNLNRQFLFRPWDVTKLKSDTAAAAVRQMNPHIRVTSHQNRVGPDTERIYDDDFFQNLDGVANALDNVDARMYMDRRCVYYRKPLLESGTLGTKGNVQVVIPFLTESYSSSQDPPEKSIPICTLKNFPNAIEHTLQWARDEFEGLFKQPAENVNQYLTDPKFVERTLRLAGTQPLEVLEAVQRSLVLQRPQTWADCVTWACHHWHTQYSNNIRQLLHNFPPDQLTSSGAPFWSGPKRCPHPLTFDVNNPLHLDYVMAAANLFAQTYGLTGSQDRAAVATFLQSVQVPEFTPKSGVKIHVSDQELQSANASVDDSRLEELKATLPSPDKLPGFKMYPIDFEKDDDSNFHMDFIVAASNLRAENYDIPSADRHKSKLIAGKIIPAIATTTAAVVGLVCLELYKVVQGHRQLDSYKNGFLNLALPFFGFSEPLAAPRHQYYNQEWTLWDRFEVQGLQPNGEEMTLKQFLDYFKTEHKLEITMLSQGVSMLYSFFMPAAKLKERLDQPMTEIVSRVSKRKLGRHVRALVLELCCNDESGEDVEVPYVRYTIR
The assay is described as follows: Ube1 (E1) assay, ECL. In kind it is biochemical. Particulars: 50 nM E1, 2 μM Ub. On the procedure: FIG. 11: Ube1 inhibitor study PYR41— ECL. Inhibitor study. Titration of PYR41 (Calbiochem 662105) from 300 μM to 10 nM. Used anti-His capture for E1 (Millipore, 16-255, 1/1000 dil); 50 nM E1; 2 μM Ub; 500 μM ATP; 30-minute pre-incubation with cpd.; 30 minute reaction time.
(§1) FIG. 30 (b): E1/E2 Assay—ECL Inhibitor study—PYR-41. Used 60 minute incubation; 2 μM Ub; 100 μM ATP. For E1 assay (Anti-His capture) 50 nM E1. For E2 assay (Anti HA-capture) 5 nM E1; 50 nM E2. Used streptavidin sulfo tag (MSD R32AD-1, 1 μg/ml); titration of PYR41 (Calbiochem 662105) from 300 μM to 10 nM.
For the IC50 determination of Pyr-41, the data shown is that from a 30 minute pre-incubation and a 30 minute assay. The assay was performed in a separate plate and then transferred. For information purposes, another set of assays were performed within the capture/detect plate and stopped immediately by washing off the assay solution, or washed after 60 min. It was interesting to note that even with the wash at time 0 an IC50 for the compound that was in line with the data shown could still be determined.
(§2) Each of the assays in the p27 ubiquitination cascade (E1, E2 and E3) were tested against the E1 inhibitor PYR-41. No pre-charging of either the E1 or E2 was carried out prior to the introduction of the compound although in the E3 assay, p27 phosphorylation by CDK2/Cyclin E was carried out in the absence of inhibitor.

In another assay the target is T2, UbCH3 (Homo sapiens, UniProt P49427).
T2 construct: HA,6His-UbcH3-(hu,FL) (E2); made in house
T2 sequence (P49427 whole entry, one chain of several): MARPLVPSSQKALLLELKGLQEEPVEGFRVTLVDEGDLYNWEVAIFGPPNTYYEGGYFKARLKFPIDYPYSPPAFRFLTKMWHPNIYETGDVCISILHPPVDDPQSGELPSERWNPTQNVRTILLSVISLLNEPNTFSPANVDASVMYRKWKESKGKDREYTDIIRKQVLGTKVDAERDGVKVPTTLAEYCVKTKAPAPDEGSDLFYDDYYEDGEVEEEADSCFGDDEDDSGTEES
The assay is described as follows: UbCH3 (E2) assay, ECL (anti-HA capture). Particulars: 5 nM E1, 50 nM E2, 2 μM Ub, 100 μM ATP, 60 minute incubation. In kind it is biochemical. The protocol:
as §1, §2

The test system of a further assay is T3, SCF^Skp2/Cks1.
T3 construct: 6His-Skp2-(isoform 1, hu,FL), GST-Skp1-; (hu,FL), 6His-Cul1-(hu,FL), UT-Rbx1-; 6His-Cks1-(hu,FL); 6His (N); GST (N); made in house
T3 sequence (Q13309 whole entry, canonical isoform): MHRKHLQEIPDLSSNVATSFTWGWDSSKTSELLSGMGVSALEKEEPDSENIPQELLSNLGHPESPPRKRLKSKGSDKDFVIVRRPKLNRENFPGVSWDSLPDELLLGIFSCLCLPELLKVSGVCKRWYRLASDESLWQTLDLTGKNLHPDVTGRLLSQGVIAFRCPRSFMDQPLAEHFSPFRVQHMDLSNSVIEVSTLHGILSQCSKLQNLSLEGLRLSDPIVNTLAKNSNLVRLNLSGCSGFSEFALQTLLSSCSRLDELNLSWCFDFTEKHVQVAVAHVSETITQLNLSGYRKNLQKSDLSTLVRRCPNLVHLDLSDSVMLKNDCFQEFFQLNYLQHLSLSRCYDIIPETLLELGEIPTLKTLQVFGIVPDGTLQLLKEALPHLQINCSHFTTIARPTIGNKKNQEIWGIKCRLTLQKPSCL
T3 sequence (P63208 1-160 isoform P63208-2, further chain): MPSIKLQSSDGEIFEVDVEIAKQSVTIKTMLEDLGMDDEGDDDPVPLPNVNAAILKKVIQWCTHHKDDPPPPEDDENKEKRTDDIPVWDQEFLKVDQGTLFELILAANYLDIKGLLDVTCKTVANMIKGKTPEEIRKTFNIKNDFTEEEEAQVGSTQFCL
T3 sequence (Q13616 whole entry, further chain, canonical isoform): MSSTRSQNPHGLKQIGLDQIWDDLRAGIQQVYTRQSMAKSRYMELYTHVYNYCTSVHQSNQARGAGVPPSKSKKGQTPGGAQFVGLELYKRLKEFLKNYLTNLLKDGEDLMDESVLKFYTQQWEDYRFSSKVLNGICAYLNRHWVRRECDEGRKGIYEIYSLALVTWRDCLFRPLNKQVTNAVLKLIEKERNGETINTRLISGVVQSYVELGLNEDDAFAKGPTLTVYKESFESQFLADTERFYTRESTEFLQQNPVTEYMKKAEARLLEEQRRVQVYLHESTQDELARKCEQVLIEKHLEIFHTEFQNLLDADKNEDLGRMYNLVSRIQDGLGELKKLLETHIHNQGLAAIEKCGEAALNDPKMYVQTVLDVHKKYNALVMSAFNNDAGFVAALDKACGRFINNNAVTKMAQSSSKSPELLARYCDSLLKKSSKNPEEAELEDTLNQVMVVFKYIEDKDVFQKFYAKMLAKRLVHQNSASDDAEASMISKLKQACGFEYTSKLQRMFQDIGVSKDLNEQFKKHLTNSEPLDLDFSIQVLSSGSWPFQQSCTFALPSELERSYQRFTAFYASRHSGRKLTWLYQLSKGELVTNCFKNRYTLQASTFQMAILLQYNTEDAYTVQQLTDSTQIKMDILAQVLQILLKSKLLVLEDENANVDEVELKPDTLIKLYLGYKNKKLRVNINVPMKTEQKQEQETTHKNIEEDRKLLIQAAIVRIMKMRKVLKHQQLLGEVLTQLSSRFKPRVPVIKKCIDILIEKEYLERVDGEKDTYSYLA
T3 sequence (P62877 whole entry, further chain, canonical isoform): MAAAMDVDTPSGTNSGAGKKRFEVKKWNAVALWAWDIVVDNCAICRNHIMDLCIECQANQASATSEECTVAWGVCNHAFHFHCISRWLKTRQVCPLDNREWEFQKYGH
T3 sequence (P61024 whole entry, further chain, canonical isoform): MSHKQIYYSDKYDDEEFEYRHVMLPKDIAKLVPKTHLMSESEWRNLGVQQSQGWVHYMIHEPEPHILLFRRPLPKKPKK
The assay is described as follows: 'Live' SCF^Skp2/Cks1 assay (E3 assay, p27 ubiquitination), ECL. Particulars: for follow up IC50 (in words): titration from 300 μM to 10 nM. In kind it is biochemical, human. On the procedure: FIG. 23 (a): ‘Live’ SCF^Skp2/Cks1 Assay—ECL ubiquitin titration. Used 60 minute incubation; 25 nM c-Myc p27; anti c-Myc capture for p27 (Millipore 05-274, 1/500); 5 nM E1; 1 μM E2 (HA); 25 nM E3/Cks1; 5 to 0.08 μM Ub; 1000 to 15 μM ATP; streptavidin sulfo tag (MSD, R32AD-1, 1 μg/ml). Hyperbolic increase in signal with [Ub]. Optimum signal after 2 μM ubiquitin. Largely […] of ATP concentration. […] Final assay concentration is set at 2 μM.
FIG. 23 (b): ‘Live’ SCF^Skp2/Cks1 Assay—ECL ATP titration. Used 60 minute incubation; 25 nM c-Myc p27; anti c-Myc capture for p27 (Millipore 05-274, 1/500); 5 nM E1; 1 μM E2 (HA); 25 nM E3/Cks1; 2 μM Ub; 1000 to 7 μM ATP; streptavidin sulfo tag (MSD, R32AD-1, 1 μg/ml). Initial experiments indicated a high signal which was independent of ATP concentration (lowest [ATP] of 21 μM)—indicative of tight binding. […] Km estimated at 4 μM. Final assay concentration set at 100 μM.
FIG. 30 (a): ‘Live’ SCF^Skp2/Cks1 Assay—ECL Inhibitor study—PYR-41 (E1 inhibitor).
FIG. 32: ‘Live’ SCF^Skp2/Cks1 Assay—ECL R140 Kinase inhibitor panel. Used 60 minute incubation; 25 nM c-Myc p27; anti-c-Myc capture for p27 (Millipore 05-274, 1/500); 5 nM E1; 1 μM E2 (HA); 25 nM E3 tetramer; 25 nM Cks1; 2 μM Ub; 100 μM ATP; streptavidin sulfo tag (MSD, R32AD-1, 1 μg/ml).
FIG. 34: ‘Live’ SCF^Skp2/Cks1 Assay—ECL follow up IC50s. Used 60 minute incubation; 25 nM c-Myc p27; anti c-Myc capture for p27 (Millipore 05-274, 1/500); 5 nM E1; 1 μM E2 (HA); 25 nM E3 tetramer; 25 nM Cks1; 2 μM Ub; 100 μM ATP; streptavidin sulfo tag (MSD, R32AD-1, 1 μg/ml). Titration of PYR41 (Calbiochem 662105) from 300 μM to 10 nM (control). Titration of Rottlerin, EGCG, AG538 and K252c from 300 μM to 10 nM.
as §2
In order to test the feasibility of screening the E3 assay against a range of inhibitors, the assay was tested against a panel of 41 inhibitors (40 known kinase inhibitors and PYR-41) (FIG. 31). […] Using the same assay conditions, the E3 assay was tested against these inhibitors (FIG. 33).

The target of assay [2] is T1, Ube1. Nature of the assay: E1 assay, HTRF. In kind it is biochemical. Conditions: 1 μM E1, 2 μM Ub, Anti-6His-K, 30 minutes pre-incubation. The protocol:
(§3) FIG. 18: Ube1 Inhibitor study PYR41 in E1 and E1+E2 assay—HTRF. Inhibitor study: 30 minutes pre-incubation with PYR-41. Assays were immediately diluted followed by addition of 2 mM ATP.
(§4) Using conditions identified previously, an IC50 determination for Pyr-41 using the E1 and E1/E2 assays was performed. […] This may be a reflection of the higher enzyme concentrations used in the HTRF assay step (FIG. 18).
On the technique in general: In TR-FRET formats the signal depends on donor and acceptor labels being close together.

The next assay has as its target T4, Ube1/UbCH3 (Homo sapiens, UniProt P22314).
T4 construct: 6His-UBE1-(hu,FL) (E1); made in house
T4 sequence (P22314 1-1058): T1 sequence (P22314 1-1058)
Nature of the assay: E1+E2 (Ube1+UbCH3) assay, HTRF. In kind it is biochemical. Particulars: 100 nM E1, 1 μM E2, 400 nM Ub. On the procedure: as §3
BiogenNova quote IC50 value as ˜5 μM.
as §4

A further assay concerns the target T5, E1 (Homo sapiens, UniProt P22314).
T5 construct: literature BiogenNova / Calbiochem (quoted value)
T5 sequence (P22314 1-1058): T1 sequence (P22314 1-1058)
Conditions: cited from earlier work.

[3] abbreviates: ECL E3 assay, kinase inhibitor panel screen.

Structures are written as SMILES. Several values for one entry are separate records, joined by “and”; a condition that tells them apart may be missing. Equal values may be shown once. Entries after “also recorded” stand apart in the source; their conditions may differ. Bounds are passed on as bounds.

In general, IC50 refers to the concentration at which inhibition is half-maximal. As to `CCOC(=O)c1ccc(N2NC(=O)/C(=C/c3ccc([N+](=O)[O-])o3)C2=O)cc1` [PYR-41], the IC50 was 1.3 µM at Ube1 [1] (500 μM ATP, 30 minute pre-incubation with cpd, 30 minute reaction time); 7.8 µM on Ube1 [1] (anti-His capture, 100 μM ATP, 60 minute incubation); 3.2 µM against UbCH3; 55 µM and 84 µM at SCF^Skp2/Cks1 (ECL, 25 nM c-Myc p27, 5 nM E1, 1 μM E2, 25 nM E3 tetramer, 25 nM Cks1, 2 μM Ub, 100 μM ATP, 60 minute incubation); 43 µM at Ube1 [2]; 16 µM against Ube1/UbCH3 (Anti-6His-K detection). Further, the IC50 against Ube1/UbCH3 (Anti-FLAG-K detection) is 20 µM; at E1 (quoted by BiogenNova / Calbiochem, vs. E1) it was ~5 µM. The “inhibition in panel of 41 inhibitors” value with SCF^Skp2/Cks1 (setting [3]) is on record as > 80%. Moreover, the “reported values for the inhibitor (in words)” value at E1 (literature) is listed as “low micromolar range”.

Regarding `N#C/C(=C\c1ccc(O)c(O)c1)C(=O)c1ccc(O)c(O)c1` [AG538], in the assay with SCF^Skp2/Cks1 (setting [3]), the “inhibition in kinase inhibitor panel (in words)” value (“inhibition … (in words)” for short) is “show up as inhibitors”.

Regarding `O=C(O[C@@H]1Cc2c(O)cc(O)cc2O[C@@H]1c1cc(O)c(O)c(O)c1)c1cc(O)c(O)c(O)c1` [EGCG], the “inhibition … (in words)” value in the assay with SCF^Skp2/Cks1 (setting [3]) was “show up as inhibitors; also recorded: moderate amounts of inhibition”. In addition, the “follow up IC50 (in words)” value at SCF^Skp2/Cks1 (ECL E3 assay) is given as “in the μM range”.

In the case of `O=C1NCc2c1c1c3ccccc3[nH]c1c1[nH]c3ccccc3c21` [K252c], in the assay with SCF^Skp2/Cks1 (setting [3]), the “inhibition … (in words)” value is reported as “show up as inhibitors; also recorded: moderate amounts of inhibition”. In addition, the “follow up IC50 (in words)” value at SCF^Skp2/Cks1 (ECL E3 assay) is listed as “false positive result”.

The Km is the substrate concentration at which the rate is half of its maximum. Take `Nc1ncnc2c1ncn2[C@@H]1O[C@H](COP(=O)(O)OP(=O)(O)OP(=O)(O)O)[C@@H](O)[C@H]1O` [ATP, Adenosine-5′-Triphosphate]: in the assay with SCF^Skp2/Cks1 (ECL E3 assay, ATP titration 1000 to 7 μM, 2 μM Ub, read-out: apparent Km for ATP), the Km is ~4 µM.

With `CC(=O)c1c(O)c(C)c(O)c(Cc2c(O)c3c(c(C(=O)/C=C/c4ccccc4)c2O)OC(C)(C)C=C3)c1O` [Rottlerin], the “inhibition … (in words)” value in the assay with SCF^Skp2/Cks1 (setting [3]) is given as “show up as inhibitors; also recorded: moderate amounts of inhibition”. Also, the “follow up IC50 (in words)” value at SCF^Skp2/Cks1 (ECL E3 assay) is listed as “in the μM range”.
